The values below come from US6969583B2, “Method for detecting variant HBV” (Melbourne Health, priority 2000, dated 2005).

Common to all, as to assay type: cell-based, Hepatitis B virus
For assay [1], the system named is Precore/M550I recombinant HBV-baculovirus. Description: Antiviral testing, Precore/M550I recombinant HBV-baculovirus in HepG2 cells (Example 17). Conditions: Hepatitis B virus, NDR = no dose response. The procedure: (§1) HepG2 cells were seeded at approximately 20-40% confluency and then were grown for 16-24 hours before infection. On the day of infection, triplicate plates of cells were trypsinized, and viable cell number was determined with a hemocytometer using Trypan blue exclusion. Average cell counts were calculated and used to determine the volume of high-titer viral stock necessary to infect cells at the indicated moi. HepG2 cells were washed one time with serum-free MEM to remove traces of serum. Baculovirus was diluted into MEM without serum to achieve the appropriate moi using volumes of 1.0, 0.5, and 0.25 ml to infect 100-mm, 60 mm, and 35-mm dishes, respectively. Baculovirus was adsorbed to HepG2 cells for one hour at 37° C. with gentle rocking every 15 minutes to ensure that the inoculum was evenly distributed. The inoculum was then aspirated and HepG2 cells were washed two times with phosphate-buffered saline and refed MEM-FBS with or without various concentrations of agents.
(§2) HBV core particles were isolated from the cytoplasmic fraction of HepG2 cells lysed in 0.5% w/v NP-40. Cytoplasmic extracts were adjusted to 10 mmol/l McC12 and unprotected DNA was removed by an incubation to […] for 1.5 hours at 37° C. Following sequential phenol and chloroform extractions, nucleic acids were recovered by ethanol precipitation. Nucleic acids were resuspended in 50 μl/l TE (10 mmol/l Tris, 1 mmol/l ethylenedianinetetraacetic acid), normalized by OD260, and digested with 100 μg/ml RNase (Boehringer Mannheim, Indianapolis, Ind.) for one hour at 37° C. before analysis by electrophoresis and Southern blotting. A BioRad GS-670 imaging densitometer and the Molecular Analyst software (BioRad, Hecules Calif.) was used to analyze suitable exposures of Southern blots. Densitometry data was fitted to logistic dose response curves using the TableCurve2D software package from Jandel Scientific. Logistic dose response equations were used to calculate IC50 and IC90 values and co-efficients of variation.
(§3) Conditioned medium was collected from HepG2 cells and subjected to centrifugation at 6,000 g for five minutes to remove cellular debris. HBV particles were precipitated with 10% w/v PEG 8000 and were concentrated by centrifugation at 12,000 ×g. Viral pellets were resuspended us 1 ml of MEM-FBS and divided into two aliquots. One set of aliquots was treated with 750 μg/ml Pronase for one hour and then with […] DNase 1 for one hour. Both sets of aliquots were then digested with Proteinase K, and extracted with phenol and chloroform. DNA was precipitated with 0.1 volume of 3 mol/l sodium acetate and 1 volume of isopropanol. Ten micrograms of transfer RNA was added as a carrier during precipitation. […] DNA was then analyzed by electrophoresis and Southern blotting. […]

Assay [2] concerns Precore/L526M/M550V recombinant HBV-baculovirus. The experiment in a line: Antiviral testing, Precore/L526M/M550V recombinant HBV-baculovirus in HepG2 cells (Example 17). Conditions: Hepatitis B virus, NDR = no dose response. The procedure: as §1, §2, §3
Another assay deals with L526M HBV baculovirus. The experiment in a line: Antiviral testing with L526M HBV baculovirus in HepG2 cells (Example 15). The procedure:
as §1, §2
3TC and PCV were a gift from Klaus Esser, SmithKline Beecham, Collegeville, Pa. PMEA was obtained from Gilead (Foster City, Calif.). 3TC was resuspended in sterile water, aliquoted, and frozen at −20° C. to avoid repeated freezing and thawing of the drug. PMEA was resuspended in sterile water after the pH was adjusted to 7.0 with NaOH. PCV was resuspended in dimethyl sulphoxide. Medium containing 3TC was prepared daily as needed using fresh aliquots of 3TC. In experiments in which 3TC treatment was initiated after viral infection, HepG2 cells were exposed to the indicated concentration of 3TC immediately after infection with HBV baculovirus. In experiments utilizing pretreatment with 3TC, cells were fed medium containing 3TC 16 hours prior to HBV baculovirus infection, HBV baculovirus infection was also carried out in medium containing 3TC, and cells were refed fresh medium containing 3TC immediately after completion of the infection and washing procedures. Treatment with PMEA and PCV were conducted in a similar manner.

In assay [3] the test system is L526M/M550V recombinant HBV-baculovirus. The experiment in a line: Antiviral testing, L526M/M550V recombinant HBV-baculovirus in HepG2 cells (Example 17). Conditions: Hepatitis B virus, HepG2, intracellular single-stranded HBV DNA, NDR = no dose response, read-out: IC50 (μM), IC SS. The procedure:
as §1
HBV core particles were isolated from the cytoplasmic fraction of HepG2 cells lysed in 0.5% w/v NP-40. […]
Conditioned medium was collected from HepG2 cells and subjected to centrifugation at 6,000 g for five minutes to remove cellular debris. […] DNA was then analyzed by electrophoresis and Southern blotting. […]

The mark [4] stands for this setting: HepG2, extracellular relaxed circular HBV DNA, read-out: IC50 (μM), EC RC.
[5] abbreviates: HepG2, intracellular single-stranded HBV DNA, read-out: IC50 (μM), IC SS.

SMILES strings stand for the structures. Like-named read-outs stand apart in the source and are kept apart here.

On to `Nc1ncnc2c1ncn2CCOCP(=O)(O)O` [Adefovir, 9-(2-phosphonylmethoxyethyl)adenine], for which the IC50 in assay [1] (setting [4]) stood at 0.09 µM; in assay [1] (setting [5]), 0.28 µM; in assay [2] (setting [4]) it was 1 µM; in assay [2] (setting [5]), 0.47 µM; in the assay on L526M HBV baculovirus (Hepatitis B virus, 526 (L526M) HBV, ds HBV DNA bands, HepG2 cells, read-out: IC50), 90 nM; in assay [3], 0.93 µM. The “change in sensitivity of L526M compared to wild-type” value in the assay with L526M HBV baculovirus (FIG. 7A-7C, result in words) is reported as “No significant change”. For the same compound, in the assay with L526M HBV baculovirus (Hepatitis B virus, HepG2, 526 (L526M) HBV, ds HBV DNA band density vs untreated controls, estimated from fitted curve, negative = stimulation, read-out: Inhibition at 1 μM), the inhibition at 1 µM was 86.2%. In addition, the “Resistance Factor” value in the assay on L526M HBV baculovirus ({}) came to 1.

As usually defined, the IC50 is the midpoint of a concentration-inhibition curve. By inhibition is commonly meant the drop in the measured response relative to a control, in per cent.
